The series is described as follows: Solubility of blue dye compounds in PGMEA and cyclohexanone. In kind it is physicochemical. As to conditions: for Solubility in PGMEA: solvent PGMEA (propylene glycol monomethyl ether acetate); for Solubility in cyclohexanone: solvent cyclohexanone.

Structures are written as SMILES.

In the case of `C=C(C)C(=O)OCCN(CC)c1ccc(C(=C2C=CC(=[N+](CC)CCOC(=O)C(=C)C)C=C2)c2ccc(Nc3ccccc3)c3ccccc23)cc1` [Syn. Ex. 1], the “Solubility in PGMEA” value is greater than 10% and the Solubility in cyclohexanone was greater than 10%.
With `CN(C)c1ccc(C(=C2C=CC(=[N+](C)C)C=C2)c2ccc(Nc3ccccc3)c3ccccc23)cc1` [compound 2], the “Solubility in PGMEA” value was less than 1% and the Solubility in cyclohexanone was less than 3%.
Consider `C=C(C)C(=O)OCCN(CC)c1ccc(C(=C2C=CC(=[N+](CC)CCOC(=O)C(=C)C)C=C2)c2ccc(Nc3ccccc3)c3ccccc23)cc1` [Comp. Ex. 1], for which the “Solubility in PGMEA” value is on record as less than 1% and the Solubility in cyclohexanone is on record as less than 3%.

Source of the values: patent US20150060744A1, “[…] BLUE DYE COMPOUND, BLUE RESIN COMPOSITION FOR COLOR FILTER CONTAINING SAME AND COLOR FILTER USING SAME” (KYUNG SYNTHETIC CO., LTD., priority 2012, published 2015).
